As a reminder, the Tmax is the time from dosing to the highest level.

We go through two compounds from patent US4383993A, “Nasal dosage forms containing natural female sex hormones” (priority 1981, dated 1983).

Entries after “also recorded” stand apart in the source; their conditions may differ.

The nature of data set [1]: bioavailability of 17 β-estradiol in rats via intravenous, nasal and intraduodenal/oral routes (TUE, E2, E1 in blood). The data set is classed as in vivo, Sprague-Dawley male rats. The method, then: (§1) Sprague-Dawley male rats, each weighing about 270 grams, were used in the progesterone study. For nasal administration, the rats were anesthetized using sodium pentobarbital (50 mg/kg) and the drug was administered to the nasal cavity by means of a micropipet at dosage levels of 50 μg, 100 μg and 150 μg/rat of [4-^14 C]-progesterone (~8.5 μCi/rat) in 0.1 ml of isotonic saline containing 1-2% Tween 80 as a solubilizing agent, according to the procedure described by Hirai et al, the 98th Annual Meeting of Pharmaceutical Society of Japan, Okayama, April 1978, except that the end of the tube leading from the esophagus to the nasal cavity was closed and the drug was administered to the nostrils which were then closed with an adhesive agent. For oral (intraduodenal) administration, the rats were anesthetized and the abdomen of each rat was opened through a midline incision and a 50 μg/rat dose of the drug ([4-^14 C]-progesterone in 0.1 ml isotonic saline with 1-2% Tween 80) was injected directly through the duodenum. For intravenous administration, the rats were anesthetized and the drug was injected through the femoral vein at dosage levels of 50 μg, 100 μg and 150 μg/rat of [4-^14 C]-progesterone in 0.1 ml of isotonic saline containing 1-2% Tween 80. Blood was sampled periodically from the […] after IV and nasal administration, and from the tail vein after ID administration. Blood levels of progesterone were determined by thin layer chromotography.
Sprague-Dawley male rats, each weighing approximately 270 grams, were given dosages of 5 μg, 10 μg and 20 μg/rat of [6,7-^3 H] […] Blood samples were taken periodically as described in the progesterone study and assayed for estradiol (E2), estrone (E1) and total unconjugated estrogens (TUE).

Data set [2] is described as follows: bioavailability of progesterone in rats after intravenous, nasal and intraduodenal/oral administration. The data set is classed as in vivo, Sprague-Dawley male rats. The method, then: as §1
For data set [3] the following is noted: by mouth; rapid metabolism in intestinal epithelium and liver; cited from earlier work.

As to `C[C@]12CC[C@@H]3c4ccc(O)cc4CC[C@H]3[C@@H]1CC[C@@H]2O` [17 β-estradiol, estra-1,3,5(10)-triene-3,17 β-diol], the “absorption by the nasal mucosa” value in data set [1] (nasal) is recorded as “rapidly absorbed by the nasal mucosa; also recorded: rapidly absorbed from the nasal mucosa into systemic blood without extensive intestinal or first pass metabolism”. For the same compound, in data set [1] (rat, in vivo), the “nasal vs oral bioavailability of E2” value is recorded as 13.23-21.74 times. Also, in data set [1] (rat, in vivo), the “nasal vs oral bioavailability of TUE” value is 2.26-2.83 times. The bioavailability was 50.5 to 83.9% in data set [1] (rat, in vivo, E2 bioavailability relative to corresponding IV doses); 3.8% in data set [1] (rat, in vivo, po, E2 AUC ratio vs. IV); 3.1 to 5% in data set [1] (rat, in vivo, po, E2 bioavailability relative to corresponding IV doses).
For the compound `CC(=O)[C@H]1CC[C@H]2[C@@H]3CCC4=CC(=O)CC[C@]4(C)[C@H]3CC[C@]12C` [progesterone, pregn-4-ene-3,20-dione], the “nasal bioavailability vs oral bioavailability” value in data set [2] (50 μg dosage level) is 85.75 times. The “area under the curve as a function of dose” value in data set [2] (IV and nasal routes, 50, 100, 150 μg, FIG. 2) is “directly proportional to the dose administered”. The “area under the curve, intravenous vs nasal (two tailed t-test)” value in data set [2] (at each dose) was “not significantly different, even at the 0.001 level”. For the same compound, the “absorption from the nasal mucosa” value in data set [2] (nasal) is given as “very rapidly absorbed from the nasal mucosa; also recorded: rapidly absorbed from the nasal mucosa into the systemic circulation without first pass metabolism; also recorded: rapidly absorbed from the nasal mucosa into systemic blood without extensive intestinal or first pass metabolism”. For the same compound, the “nasal bioavailability vs intravenous bioavailability” value in data set [2] (nasal vs intravenous) is “equivalent”. In addition, the “nasal bioavailability vs oral bioavailability (in words)” value in data set [2] (nasal vs oral) is reported as “vastly superior”. Further, in data set [2] (rat, in vivo), the time to peak (Tmax) was < 7 min. Moreover, the bioavailability is 103% in data set [2] (rat, in vivo, iv, AUC ratio Nasal/IV) and 1.2% in data set [2] (rat, in vivo, oral bioavailability relative to equivalent IV dose). The oral effectiveness entry in data set [3] is “not effective by mouth”.
